Patent US20130066264A1, “SUGAR-RESPONSIVE GEL AND MEDICINE ADMINISTERING DEVICE” (NATIONAL INSTITUTE FOR MATERIALS SCIENCE, priority 2010, published 2013)

Conditions: acid-base titration, FIG. 2
Description: Next, for the sample 1, the comparative sample 1 and the comparative sample 2, the relationships between glucose concentrations and apparent changes in pKa were derived by acid-base titration in the conditions of various glucose concentrations (0 g/L, 1 g/L, 3 g/L, 5 g/L and g/L).

C=CC(=O)NCCNC(=O)c1ccc(B(O)O)cc1F [sample 1, 4-(2-acrylamideethylcarbamoyl)-3-fluorophenylboronic acid]
apparent pKa (glucose 0 g/L, 1 g/L, 3 g/L, 5 g/L and g/L (samples a1 to a5)): < 7.4 | degree of decrease in pKa according to the increase in concentration of glucose, versus comparative samples 1 and 2 (various glucose concentrations): remarkably superior
